Reference: patent US5051132A, “Lyophilized preparation of 6-(3-dimethylaminopropionyl)forskolin” (priority 1989, dated 1991)

Assay: Stability and solubility of 6-(3-dimethylaminopropionyl)forskolin in aqueous solution
Assay type: physicochemical

## C=CC1(C)CC(=O)C2(O)C(C)(O1)C(OC(C)=O)C(OC(=O)CCN(C)C)C1C(C)(C)CCC(O)C12C (centres unmarked) [6-(3-dimethylaminopropionyl)forskolin]
Aqueous solution
  stability in the state of aqueous solution: unstable in the state of aqueous solution
pH about 3 to about 6
  stability and solubility in the pH range of about 3 to about 6: keeps stable and exhibits a good solubility
